# From patent US20080226565A1, “Anticariogenic Proteins & Peptides & Saccharides” (priority 2004, published 2008)
# Key:
# Parameters in all cases: species or system human
# [1] = In-vivo: tooth samples treated with peptide, 12 hours in the oral cavity, then acetic acid, Knoop hardness
# Method: In another experiment, 126 sterilized tooth samples where treated with a variety of peptides, fixed to the device and positioned after the lower jaw in the oral cavity of 5 volunteers. The device remained in the oral cavity for a period of 12 hours after which the teeth where removed, cleaned and subjected to a drop of acetic acid (0.1N, 30 min., 37° C). Subsequently the acid was removed, the teeth where cleaned and the hardness was measured (Knoop method). The depth of penetration increased 8.82 μm, 5.40 μm, 5.32 μm and 3.77 μm respectively for teeth treated as blanco with 4.2% casein phosphopeptide e-polylysine copolymer, 7.5% phosvitin and with 4.2% bisphosphonylated e-polylysine. The p-values are respectively 0.000, 0.000 and 0.004 for casein phosphopeptide e-polylysine copolymer, bisphosphonylated e-polylysine and phosvitin.
# (§1) Tooth samples have been cut in horizontal slices (thickness: 0.3 to 1 mm) with a Leitz 1600 tooth cutter with horizontal cutting blade; the slices are cut manually (with a bore) into small tooth samples that contain a small part of the original tooth surface. The tooth sample is positioned in a small plastic tube, that has been cut from a long plastic tube with 6 mm external diameter. The length of the tube is 3 to 6 mm. The inner part of the tube is filled with a polymer that hardens under light (Photoclearfil Bright; Kuraray). The tooth sample is positioned in the soft polymer inside the tube, in such a way that the original tooth surface is just surfacing above the tube. Finally the polymer is hardened with a light source. The tooth surface is polished with Struers silicon carbid paper (800-4000) and the hardness is measured 5 times on each of the samples under the Letiz Wetzlar microscope (weight on needle: 50 p). Tooth samples with a maximum average depth of penetration of 43 μm are retained for use in the oral cavity.
# The tooth-samples are fixed to a device that has been described in the chapter “Description of the invention ( chapter: In-vivo experiments)” and the device is positioned in the oral cavity after the lower jaw.
# A drop from a solution containing either, e-polylysine, CPP, bisphoshphonylated e-polylysine, casein phosphopeptide epsilon-polylysine copolymer or partially hydrolysed phosvitin has been positioned at the surface of tooth samples for a period of 30 minutes at 37 C.; the drop was removed and the procedure was repeated once more. All solutions contained also 3.1% CaCl2.2H2O and 1.7% KH2PO4 (except for the one containing e-polylysine).
# The tooth surface was cleaned with a soft paper towel until it was visibly clean. Four such tooth samples where fixed to the device and located in the oral cavity behind the lower jaw. They resided in the oral cavity for a period of 12 hours (only to be removed during eating). Subsequently, they where removed, cleaned and the tooth surface was treated with a drop of acetic acid (0.1N, 30 min., 37° C.); the acid was removed, the tooth was washed with deionized water and the hardness was evaluated.
# A: type of peptide ingredient in the solution (% on a w/w basis versus water). (*): the teeth where submerged (30 min.) in a saliva batch and dried afterwards on air, before they where treated with a solution that contained bisphosphonylated e-polylysine. B: Average initial hardness of the tooth surface; μm (st. dev.) C: Average hardness after treatment, after residing in the oral cavity and treatment with acid D: The average change in hardness (C−B) E: p-value (against blanco) of the Mann-Whitney statistical test F: the number of tooth samples that where treated with a specific formulation; hardness on each of the tooth samples was measured five times and an average value was calculated; most often 4 tooth samples per person; 5 volunteers participated to the experiment; the 132 tooth samples where randomized into groups (of 4 teeth) with the same average hardness value.
# [2] = Determination of the PF-value: Knoop micro hardness of tooth samples coated with product, then saliva and acetic acid (in-vitro)
# From the text: The capacity to protect teeth against caries can be measured with a technique well known in the art (U.S. Pat. No. 5,279,814). Demineralization with acid, decreases the hardness of the tooth surface. The hardness can be quantified indirectly by measuring the depth of penetration of a needle in the surface (measurement of micro hardness). With this procedure, so called “Knoop” method, the needle is penetrating the surface under the pressure of constant weight and leaves a mark on the surface that allows the calculation of the depth of penetration. The more the tooth is suffering from demineralization, the softer its surface will get and the larger the depth of penetration will be (Knoop F., Peters C. G., Emerson W. B., A Sensitive Pyramidal Diamond Tool for Identation Measurments, J. Res. Natn. Bur. Stand. 23, 39-61 (1939).
# The procedure includes the determination of the hardness of a human tooth sample with the Knoop method. Subsequently, the tooth is treated with an experimental protecting product outside the oral cavity.
# It is cleaned softly with a paper towel until the coating is invisible.
# Subsequently the tooth sample is submerged in a batch of human saliva in order to simulate the conditions in the oral cavity. After removal from the saliva batch (after 30 min.) it is treated with acid over a constant time period of 30 min. at 37° C. The acid is washed away, the tooth is dried on air and the hardness is measured again. The change in hardness (delta P in μm) is obtained by comparing with the hardness of the tooth before treatment. This experiment is repeated on other tooth samples. The effect of acid on unprotected teeth is obtained by carrying out the same procedure but without the use of an experimental protecting product (delta Pa). The protecting capacity (“PF” protection factor) of an experimental protecting compound can be defined as: […]
# The ability of a product to protect teeth (PF-value) is determined with the Knoop method. A tooth sample, size 3×3×3 mm is cut from a human tooth and embedded into polymerizing resin in such a way that the surface of the tooth sample appears on the surface of the (resin) cube after the resin has become solid. The surface of the tooth is mechanically polished with rotating silicon carbide abrasive paper (Struers P1200-P2400-P4000) and the micro hardness of the enamel is determined with a Knoop diamant needle (Leitz-Wetzlar;
# microdurometer “Durimet”; weight 50 gr; penetration-time: 30 seconds (Collys et al., J. Dent. Res. 1990; 69: 458-462)).
# The penetration leaves a mark on the tooth surface, which is related to the depth of penetration (μm) and which can be analyzed under the microscope. […] The determination of the depth of penetration is repeated six times on each of the tooth samples and the average value is calculated. In order to determine the effect of acid on the hardness of the surface, use is made of an acetic acid buffer from Merck (pH 5; 0.1N). One drop of acid is positioned on the enamel for a period of 30 minutes at 37° C. The sample is cleaned with demineralized water and dried. The hardness is measured again according to the method of Knoop. This procedure is repeated 4 times, which means that the sample has been subjected to acid for a total period of two hours.
# A graph (Y: penetration depth μm; X: 5 treatment stages) can be made on the basis of 5 average values (each of them based on six measurement), one obtained before treatment with acid, and the other 4 obtained after each of the 4 treatment-stages with acid. A logaritmic regressionline is calculated.
# [3] = In-vivo: radiated tooth samples treated with protector, 5 days in the oral cavity, Knoop hardness; details: for delta: change of hardness (increase of depth of penetration): radiation + 5 days in oral cavity, 0.1% fluoride or 4% bisphosphonate e-polylysine with CaCl2 and KH2PO4
# From the text: A device is constructed that can contain up to 6 experimental tooth samples for positioning in the oral cavity. […] The construction of the experimental tooths samples is outlined in chapter C.2.“Results; in-vivo experiments”. In the oral cavity, the tooth samples are positioned in the device in such a way that the enamel surfaces are subjected to physical contact with the tongue and are submerged in saliva. […] In experiments where the device is residing a long time period in the oral cavity (5 days and more), a metal network is positioned just above the surface of the experimental teeth, in order to provide support for the bacteria and stimulate it's growth path. It is also possible to measure the residual protection competence by removing the tooth samples from the oral cavity at the end of the selected residence time and treating them with acid under laboratory conditions.
# The device was positioned after the lower jaw in the oral cavity for a period of five days. After removal from the oral cavity, the samples where cleaned and the hardness was measured.
# as §1
# Tooth samples have been subjected to a radiation dose that is equal to the amount that is given to patients with oral cancer (20 Gray) and have been sterilized. […] A drop of the solution was positioned on the tooth surface and allowed to reside for a period of 30 minutes at 37 C.; the procedure was repeated after removal of the drop with pressured air. Finally the drop was removed, the tooth was dried on air and fixed to the device. In total six tooth samples have been fixed to the device and positioned in the oral cavity after the lower jaw. It remained in the oral cavity for a period of 5 days (day and night). After completion of the required residence time, the device was removed from the oral cavity and the experimental teeth where separated from the device and washed. The hardness was measured according to the Knoop method, six times on each of the tooth samples.
# B: the stage at which the hardness of the tooth surface has been measured with the Knoop method. (before the treatment; after radiation and before addition of protector formulation to the surface; after addition of protector to the surface of the tooth and after residing five days in the oral cavity).
# B: the stage at which the hardness of the tooth surface has been measured with the Knoop method.
# [4] = In-vivo: residual protection, radiated samples after 5 days in oral cavity treated with acetic acid
# From the text: N: number of tooth samples A: hardness(μm) after radiation and 5 days residence in the oral cavity B: hardness after radiation and 5 days in the oral cavity and treatment with acetic acid
# [5] = gel: 4.2% hydroxyethylcellulose, 0.3% NaF, pH 8.8
# [6] = 4.2% w/w solution, 12 hours oral cavity, acetic acid 0.1N 30 min
molecule,measurement,setting,value
"Natural phosvitin (Phos) [Product 3, reference compound]",D: average change in hardness (C−B),[1]; 7.5% w/w solution,5.32 μm
"Partially hydrolyzed phosvitin, (Phos-h) [Product 5]",more protection competence in comparison to natural phosvitin,[2]; versus natural phosvitin,25%
"[F-].[Na+] [Product IV, sodium fluoride, reference compound]",Mean hardness (depth of penetration),"[3]; after protector and 5 days oral cavity, 0.1% NaF or 4% bisphosphonate e-polylysine with CaCl2 and KH2PO4",42.77 μm
same,Mean hardness (depth of penetration),"[3]; after radiation, before addition of protector (baseline of group)",40.97 μm
same,delta: change of hardness,"[3]; after radiation, before addition of the formulation",−0.13 μm
same,delta: change of hardness (increase of depth of penetration),[3],1.67 μm
same,delta: change of hardness (increase of depth of penetration),[3]; listed as NaF,1.8 μm
same,Mean hardness (depth of penetration),"[3]; start, before treatment (baseline of group)",41.10 μm
same,PF factor,[2]; 0.1% product/water w/w,61
same,PF,[2]; gel with 0.3% sodium fluoride only,68%
same,PF,[2]; [5],68.1
same,delta P,[2]; [5],18.8 μm
same,C: B−A (increase of depth of penetration by acid),"[4]; acetic acid 0.1N, 30 min, 37° C. after 5 days in oral cavity",6.5 μm
same,B: hardness after radiation and 5 days in the oral cavity and treatment with acetic acid,"[4]; acetic acid 0.1N, pH 5, 30 min, 37° C.",48.4 μm
same,A: hardness after radiation and 5 days residence in the oral cavity,[4]; samples later treated with acid,41.9 μm
"NC(CO)(CO)CO [Product V, Tris(hydroxymethyl)aminoethane, reference compound]",PF factor,[2]; 3.4% product/water w/w,35
Polymerized (CPP) = (CPP)n [Product 2],PF factor,[2]; 7.2% product/water w/w,58
"Casein phosphopeptide (CPP) [Product 1, reference compound]","C: Average hardness after treatment, after residing in the oral cavity and treatment with acid",[1]; [6],47.60 (2.53) μm
same,D: average change in hardness (C−B),[1]; [6],6.78 μm
same,B: Average initial hardness of the tooth surface (st. dev.),"[1]; group for 4.2% solution, before treatment",40.82 (0.73) μm
